Measured values reported in patent US20160137714A1 (Thrasos Innovation, Inc., priority 2014, published 2016).
Entries after “also recorded” stand apart in the source; their conditions may differ. Blank lines part the entries; values can stand above or below the compound they belong to. Positions of bridges follow the written chain, without caps; N, C: chain ends. Non-standard residues stand in square brackets, D forms with d. Residues, ends and D or L forms follow the SMILES beside them. No end group written: not given here.

Key:
[1] = fresh mouse or rat plasma; settings: 37° C., up to 120 min (Table 6; protocol lists up to 1440)
FIGURE 31 (2/2) = test: FIGURE 31 (2/2)
Procedure: Table printed on a drawing sheet, FIGURE 31 (2/2)
Peptide to internal standard peak area ratios were used calculate percentage remaining peptide at 60 minutes and 120 minutes. Peptides are identified by GPR number (GPR#) and SEQ ID NO.
First reader's note: Second part (2/2) of Figure 31, continued from the previous sheet; in the last row (GPR 478) the empty N-Terminal cell is merged with position 1.

[2] = rat kidney tissue 10 minutes post IV administration; settings: up to 10 minutes
[3] = tested on: Adriamycin (ADR)-induced proteinuria; test: Adriamycin (ADR)-induced nephropathy model; type: in vivo; settings: rat
Source text: Adriamycine (doxorubicin) is a drug used in chemotherapy. It is known to cause undesirable renal toxicitiy in rat, mainly glomerular damage (via podocyte injury/loss), resulting in proteinuric neophrapthy (Hakroush et al., 2014, J. Am. Soc. Nephrology, 25:927-38), and it is the prototypical model of human primary focal and segmental glomerulosclerosis. ADR-induced mephropathy, in mouse or rat, is a robust in vivo model of proteinuria that can easily and directly be measured in urine, thus allowing for monitoring of disease progression in living animals. It is induced by a single intravenous injection of ADR.
Male CD rats (aged 8 weeks) were acclimatized in the facility for at least 5 days. On Day 0, rats received Adriamycin at a dose level of 7.5 mg/kg by tail vein administration at a dose volume of 5 mL/kg. If needed, an abbocath was used for administration. The abbocath will be flushed with 0.5 mL of 0.9% saline after Adriamycin injection. […]
Once pretreatment and on pre-determined days (e.g. days 5, 10, 15, 20) blood samples (0.7 mL) was collected from the jugular vein in SST tubes and analyzed for serum creatinine and BUN. Once pretreatment and on pre-determined days (e.g. days 5, 10, 15, 20) urine samples were collected overnight from individually housed animals. After collection, serum and urine samples were processed and analyzed for creatinine (serum & urine), BUN (serum) and total protein (urine). […] The time the animals are placed in urine collection cages and time of sample collection was recorded. […]
Once pretreatment and on Day 21, blood samples (0.7 mL) were collected from the jugular vein in SST tubes and analyzed for serum creatinine and BUN. Once pretreatment and on pre-determined days (Days 5, 10, 15, 21) urine samples were collected overnight from individually housed animals. After collection, serum and urine samples were processed and analyzed for creatinine (serum & urine), BUN (serum) and total protein (urine). […] The time the animals are placed in urine collection cages and time of sample collection was recorded. […]

Ex-vivo plasma stability = type: in vitro ADME, mouse or rat
Procedure: Test article is added to fresh mouse or rat plasma at a final in-vial concentration of 1 μM. The peptide is incubated in a water bath at 37° C. over a time course that included the following points (in minutes): 0, 15, 30, 60, 120, 240, and 1440. After the incubation time is completed, a 50 μL aliquot of plasma is removed and proteins are precipitated using a solution containing internal standard (THR-123 at 150 ng/mL) in methanol with 0.5% acetic acid (v/v). The samples are centrifuged at 13,000 RPM for 5 minutes, and a 100 μL aliquot of supernatant is removed and transferred to a 96-well plate containing 200 μL of reconstitution solution (Water/MeOH/Acetic Acid/TFA, 60/40/0.2/0.05, v/v/v/v). A calibration curve and quality control (QC) samples are prepared in parallel in the same manner as the incubation samples. The calibration range for this assay is from 0.02 to 2.0 μM in rat or mouse plasma. The extracted calibrants, QC, and incubation samples are injected onto an AB SCIEX API 2000 LC-MS/MS system. Chromatographic separation is performed using a reversed-phase C18 HPLC column (Ace-3 C18, 30×2.1 mm, 3 μm). The solvent system consists of Milli-Q water, acetonitrile and formic acid. Analyte and internal standard are detected using the multiple reaction monitoring (MRM) scan mode. Calibration curves are generated by using a weighted (1/concentration) quadratic regression analysis of the peak area ratios (analyte/internal standard) versus the nominal concentration of the calibration standards. The concentration of the analyte in the incubation samples is determined by back-calculating the peak area ratios obtained using the quadratic regression.

[4] = Pharmacokinetic studies of THR-123 and GPR-294 i.v. and s.c. (FIG. 13, FIGS. 5-8); type: in vivo
Procedure: A stock solution of THR-123 was prepared at 250 μg/mL in DMSO. This solution was quantitatively added to blank mouse plasma to generate a calibration curve. The linear range was from 0.25 to 250 ng/mL. A 175 μL aliquot of plasma from removed from each calibrant tube and processed using solid phase extraction (SPE). Study samples were first diluted with blank control mouse plasma, and 175 μL was aliquoted for processing using SPE. An internal standard working solution (ISWS) was added to each calibrant and study sample (GPR-227 at 100 ng/mL in water). Plasma proteins were precipitated with 175 μL of methanol with 0.5% acetic acid (v/v). After centrifugation at 14,800 RPM for 10 minutes, a 300 μL aliquot of supernatant was diluted in water with 4% phosphoric acid (v/v). The entire diluted sample was extracted by SPE using a Waters Oasis HLB 96-well μElution plate. Samples were washed twice using a solution of acidified water (0.1% TFA, v/v) and 15% MeOH in water (v/v). Purified extracts were eluted into a 96-well collection plate using 40 μL of elution solvent. Standards and study samples were injected onto a Thermo Q-exactive LC-MS/MS system. Chromatographic separation was performed using a reversed-phase C18 HPLC column (Waters CSH C18, 50×2.1 mm, 2.5 μm). Analyte and internal standard were detected using the targeted selected ion monitoring (tSIM) scan mode. Calibration curves were generated by using a weighted (1/concentration^2) linear regression of the peak area ratios (analyte/internal standard) versus the nominal concentration of the calibration standards. The concentration of the analyte in the study samples was determined by back-calculating the peak area ratios obtained using the linear regression and applying the appropriate dilution factors.
The study described herein involved single (mouse) or multiple (rat) blood collections after test article administration. Test articles are given by oral (PO), intravenous (IV), subcutaneous (SC) or intraperitoneal (IP) routes. All animals have a five day acclimatization period before dosing. Body weights are recorded prior to dosing. […]

[5] = plasma after s.c. administration of 1 mg/kg Compound III; after IV administration

Compound: Cys-Tyr-Tyr-Asp-Asp-Ser-Ser-Ser-Val-Leu-Cys-Lys-Lys-D-tyr-Arg-Ser
not cleaved [1]: 94.7 percent remaining at 120 min

Compound: CYFDDSSNVLCKKYRS (cysteine pairing not given here)
cleaved bond [2]: Y14-R15, major, 10 minutes
fragment found [2]: VI (GPR-263) Cys-Tyr-Phe-Asp-Asp-Ser-Ser-Asn-Val-Leu-Cys, 10 minutes; also recorded: VIII (GPR-262) Cys-Tyr-Phe-Asp-Asp-Ser-Ser-Asn-Val-Leu-Cys-Lys, 10 minutes; also recorded: IX (GPR-261) Cys-Tyr-Phe-Asp-Asp-Ser-Ser-Asn-Val-Leu-Cys-Lys-Lys, 10 minutes

Compound: CCOC(=O)[C@H](CCc1ccccc1)N[C@@H](C)C(=O)N1CCC[C@H]1C(=O)O [Enalapril]
ADR-induced renal lesions in H&E-stained kidney sections ([3]; 21 days post ADR, treated daily, glomerular hypertrophy, protein casts, tubular dilation, neutrophils): absent or reduced in number
effect on ADR-induced proteinuria (urine protein to urine creatinine) ([3]; ADR 7.5 mg/kg, daily for 21 days, GPR-405 300 nmol/kg sc, enalapril 50 mg/kg po): efficacious
effect on serum creatinine (sCr) and blood urea nitrogen (BUN) ([3]; following Adriamycin treatment, GPR-405 300 nmol/kg sc, enalapril 50 mg/kg po, FIG. 24): Neither enalapril nor GPR-405 had any marked effect

Compound: Cys-Tyr-Phe-Asp-Asp-Ser-Ser-Asn-Val-Leu-Cys-Lys-Lys-D-tyr-Arg-Ser
not cleaved [5]: prevented the proteolytic cleavage between the amino acids 14 and 15

The next lines start with results.

% Remaining at 60 and 120 minutes | 60 (FIGURE 31 (2/2)): 87.7%
% Remaining at 60 and 120 minutes | 120 (FIGURE 31 (2/2)): 78.9%
Compound: Y Y F S S S F V L C K R y* R S [478 | 68]

remaining at 1 h (Ex-vivo plasma stability; fresh plasma 37° C., 1 μM, 60 min, read-out: Percent remaining 60 min): 72.6%
remaining at 2 h (Ex-vivo plasma stability; fresh plasma 37° C., 1 μM, 120 min, read-out: Percent remaining 120 min): 67.9%
stability toward plasma proteolytic cleavage (Ex-vivo plasma stability; versus THR-123, rat plasma (FIGS. 3 and 4)): enhanced
bioavailability ([4]; in vivo, s.c. versus i.v., FIG. 13, read-out: bioavailable by sub-cutaneous administration): 100%
Compound: CC(C)C[C@@H]1NC(=O)[C@H](C(C)C)NC(=O)[C@H](CC(N)=O)NC(=O)[C@H](CO)NC(=O)[C@H](CO)NC(=O)[C@H](CC(=O)O)NC(=O)[C@H](CC(=O)O)NC(=O)[C@H](Cc2ccccc2)NC(=O)[C@H](Cc2ccc(O)cc2)NC(=O)[C@@H](N)CSSC[C@@H](C(=O)N[C@@H](CCCCN)C(=O)N[C@@H](CCCCN)C(=O)N[C@H](Cc2ccc(O)cc2)C(=O)N[C@@H](CCCNC(=N)N)C(=O)N[C@@H](CO)C(=O)O)NC1=O [GPR-294, Cys-Tyr-Phe-Asp-Asp-Ser-Ser-Asn-Val-Leu-Cys-Lys-Lys-D-tyr-Arg-Ser] (H-CYFDDSSNVLCKK[dY]RS-OH; disulfide 1-11)
plasma half-life compared with THR-123 ([4]; by either route of administration (i.v., s.c.)): much longer plasma half-life than the non-stabilized THR-123
